Reference: patent US10646565B2, “Treatment of alzheimer'S disease (AD) with an aluminum salt” (AFFIRIS AG, priority 2014, dated 2020)

Columns and labels:
[1] = aluminium oxyhydroxide; cited from earlier work
[2] = tested on: Tg2576 mice; assay: Contextual fear conditioning (CFC) in Tg2576 mice; conditions: 6 monthly s.c. injections, Alum equivalent to 2 mg/ml
[3] = tested on: patients with early AD; assay: AFF006 clinical trial: MRI volume-based morphometry of hippocampus; assay type: in vivo, human; conditions: 2 mg group of patients, FIG. 4
Source text: EMEA and FDA criteria recommend newer techniques, such as MRI, especially atrophy of entorhinal or (para-) hippocampal cortex. With the present invention, PET (Positron emission tomography)-MRI was applied. More specifically, volume of right hippocampus (important for learning and memory of material that is difficult to verbalise) is used according to the present invention as significant AD biomarker for treatment success.
Hippocampus (left and right), and whole lateral ventricle ROIs were delineated on an anatomical MRI template in order to generate the atlas for volumetric measures. The volumes of the hippocampus and lateral ventricles for each subject were determined using a fully-automated method which combines transformations derived from the nonlinear registration of the atlas labels to individual subject scans and subject-specific image information (Collins et al., J. Comput. Assist. Tomogr., 18: 192-205, 1994). Lateral ventricle and hippocampal segmentations that failed post-processing QC review were manually corrected. The total intracranial volume (TIV) was estimated from the brain mask generated during pre-processing and the average TIV (TIVavg) for each subject was determined by averaging the estimated TIV across visits. […]

[4] = tested on: patients with early AD; assay: AFF006 clinical trial: adverse event summary of local reactions; assay type: in vivo, human
Protocol: AFF006 was conducted as a randomized, placebo-controlled, parallel group, double-blind, multi-center phase II study and assessed the clinical and immunological activity as well as the safety and tolerability of repeated s.c. administrations of i.a. aluminium (different doses) in patients with early AD, as defined in the protocol. It was performed in a total of 6 countries: Austria, France, Germany, Slovakia, Czech Republic and Croatia.
The clinical trial comprised 10 regular outpatient visits and 6 telephone interviews. Up to four weeks before start of treatment, a screening visit (Visit 1) was performed to ensure suitability of the patients for the clinical trial and to establish the patients' baseline characteristics. Following screening, eligible patients were randomly allocated to the treatment groups. After randomization at week 0, patients received 6 injections with either 1 or 2 mg aluminium. Injections were applied s.c. by the investigator at weeks 0, 4, 8, 12, 40 and 65 (Visit 2, 3, 4, 5, 7 and 9).
At Visits 2, 3, 4, 5, 6, 7 and 9 possible local and systemic reactions to the vaccine and vital signs (blood pressure, heart rate, respiratory rate and body temperature) were assessed. In addition, a physical and neurological examination was performed. Efficacy parameters were assessed at Visits 1, 2, 3, 5, 6, 7, 8, 9, 10. The final visit (Visit 10) was performed twelve weeks after the last administration of study drug (Visit 9). An early discontinuation visit (EDV) was performed when a patient discontinued from the clinical trial.
During the study Visits 2, 3, 4, 5, 7 and 9 the patient received study drug by the investigator, in total: six injections over a 65-week treatment period. Injections were applied to the external surface of the upper arm, approximately 8-10 cm above the elbow. Prerequisite regarding the actual site was the presence of an intact regional lymph node station. If the draining lymph node stations of both upper arms were not intact, injection was placed into the thigh close to the inguinal lymph nodes. Two alternating injection sites (e.g. left and right upper arm, left upper arm and left thigh) were used throughout the 6 injections.
Injections were applied to the subcutaneous tissue (s.c.). Special care was taken to avoid […] application by careful aspiration before each injection. All administrations were performed at the trial site.
Safety evaluations included the following:
adverse events (AEs) and serious adverse events (SAEs) (number of patients who withdrew due to AEs; reason for withdrawal)

[5] = tested on: respective immunizing peptide; assay: ELISA titer of vaccination induced IgG Abs against immunizing peptide in Tg2576-mice; assay type: in vivo; conditions: 6x s.c. at 4-week intervals, plasma at sacrification, background 1/100, FIG. 6A
Protocol: Alum doses used were equivalent to 2 mg/ml. Vaccination induced Abs were measured in plasma samples taken at sacrification (SeqID 1 (n=10), […], KLH-Alum (n=10) and Alum only (n=8)). Samples were analyzed for their concentration of IgG Abs against specific peptides. Values depicted are the titer calculated as OD max/2 (at 405 nm) plus SEM. IgG response towards the respective immunizing peptide (SeqID 1: anti SeqID 1; SeqID 2: anti SeqID 2, KLH-Alum: anti KLH, Alum: anti AD02); B) Reactivity towards human Aβ1-40/42 after immunization. […] Background for this assay was set to 1/100, indicated by black lines and an asterisk in A+B.
Substrates used include human (BACHEM, CH) Aβ1-40/42 (at 5 μg/ml), KLH (1 μg/ml) and peptide-Bovine serum albumin (BSA) conjugates (SeqID 1 and SeqID 2, 1 μM). Optical density (OD) was measured at 405 nm using a micro-well reader (Tecan, CH). ODmax/2 was calculated.
To test the immunogenicity of two Aβ targeting vaccines SeqID 1-KLH-Alum and SeqID 2-KLH Alum in comparison to KLH-Alum and Alum (Aluminium-oxyhydroxide) only, Tg2576-mice were injected 6×, s.c., at 4-week intervals with either conjugate-vaccine containing 30 μg net peptide, equivalent doses of KLH formulated with Alum or Alum only. […] Vaccination induced Abs were measured in plasma samples taken at sacrification (SeqID 1 (n=10), SeqID 2 (n=8), KLH-Alum (n=10) and Alum only (n=8)).

[6] = tested on: patients with early AD; assay: AFF006 clinical trial: Quality of Life (QOL) caregiver; assay type: in vivo, human; conditions: 2 mg compared to 1 mg and other groups, over a period of 18 months, FIG. 5
Source text: Caregivers completed the measure as a questionnaire about their patients' QOL. The measure consisted of 13 items, rated on a 4 point scale, with 1 being poor and 4 being excellent. Outcomes are shown as the change over time using a least squares means from a mixed model.
QOL caregiver is a brief, 13-item questionnaire designed to specifically obtain a rating of the QOL of the patient from the caregiver's perspective. Questions cover relationships with friends and family, concerns about finances, physical condition, mood, and an overall assessment of life quality. All items are rated on a four-point scale, with 1 being poor and 4 being excellent. The total score is the sum of all items, which can range from 13 to 52. QOL caregiver values are presented here as the change from baseline. Outcomes were measured at Visits 1, 6, 8, and 10.

Substance: aluminium oxyhydroxide
- point of zero charge [1]: ~11 pH
- contextual memory and learning (CFC, % of time freezing) ([2]; FIG. 7, listed as Alum): showed similar effects as detectable with Aβ targeting vaccines
- contextual memory and learning (CFC, % of time freezing) ([2]; FIG. 7, listed as aluminium-oxyhydroxide): lower cognitive decline significantly
- MRI data (volume of right hippocampus) [3]: statistically significant disease modifying effect
- Musculoskeletal and Connective Tissue Disorders: Pain in Extremity: events ([4]; 1 mg s.c., N = 48): 0
- Musculoskeletal and Connective Tissue Disorders: Pain in Extremity: subjects % ([4]; 1 mg s.c., N = 48): 0.0%
- Musculoskeletal and Connective Tissue Disorders: Pain in Extremity: subjects n ([4]; 1 mg s.c., N = 48): 0
- Vascular Disorders: Haematoma: subjects n ([4]; 1 mg s.c., N = 48): 0
- Musculoskeletal and Connective Tissue Disorders: Pain in Extremity: events ([4]; 2 mg s.c., N = 51): 1
- Musculoskeletal and Connective Tissue Disorders: Pain in Extremity: subjects n ([4]; 2 mg s.c., N = 51): 1
- Vascular Disorders: Haematoma: subjects n ([4]; 2 mg s.c., N = 51): 0
- IgG titer towards the peptide used for immunization (ODmax/2) [5]: did not elicit signals above background
- QOL of the patient rated by caregivers (QOL-AD) [6]: significantly improved
